Experimental data reported in patent US9611258B2, “Dual MEK/PI3K inhibitors and therapeutic methods using the same” (THE REGENTS OF THE UNIVERSITY OF MICHIGAN, priority 2013, dated 2017).
Each block holds one molecule with its values, some of them ahead of it.

Legend:
PI3K = PI3K lipid kinase activity, Adapta TR-FRET assay with purified enzyme; assay type: biochemical; conditions: for IC50: read-out: PI3K inhibition IC50
Procedure: (§1) Quantitation of PI3K lipid kinase activity of a present compound is determined with purified enzyme using the fluorescence-based Adapta™ TR-FRET assay from InVitrogen (Wisconsin, USA). Quantitation of MEK1 kinase activity of a present compound is determined with purified enzyme using the LanthaScreen® displacement binding assay (Tracer 236) from InVitrogen (Wisconsin, USA). Cellular screening is carried in cultured Panc-1 cells treated for 1 hour with varied doses of the test compound. Effects on pERK and pAKT expression are evaluated by immunoblotting using phospho-specific antibodies (pAKT [Ser473] and pERK1/2 [Thr202/Tyr204]) from Cell Signaling Technology.
(§2) In Vitro Biochemical and Cell-Based Assays. Detection of PI3K lipid kinase activity was conducted with purified enzyme using the fluorescence-based Adapta™ TR-FRET assay from Invitrogen (Wisconsin, USA). Detection of the MEK1 kinase activity was conducted with purified enzyme using the LanthaScreen® displacement binding assay (Tracer 236) from Invitrogen (Wisconsin, USA). Evaluation of off-target kinase activity was conducted against the kinase screening panel provided by Invitrogen (Wisconsin, USA).

MEK1 = MEK1 (Homo sapiens, UniProt Q02750); assay: MEK1 LanthaScreen displacement binding assay (Tracer 236) with purified enzyme; conditions: in vitro, read-out: MEK inhibition IC50
Chain of MEK1 (Q02750 whole entry, canonical isoform): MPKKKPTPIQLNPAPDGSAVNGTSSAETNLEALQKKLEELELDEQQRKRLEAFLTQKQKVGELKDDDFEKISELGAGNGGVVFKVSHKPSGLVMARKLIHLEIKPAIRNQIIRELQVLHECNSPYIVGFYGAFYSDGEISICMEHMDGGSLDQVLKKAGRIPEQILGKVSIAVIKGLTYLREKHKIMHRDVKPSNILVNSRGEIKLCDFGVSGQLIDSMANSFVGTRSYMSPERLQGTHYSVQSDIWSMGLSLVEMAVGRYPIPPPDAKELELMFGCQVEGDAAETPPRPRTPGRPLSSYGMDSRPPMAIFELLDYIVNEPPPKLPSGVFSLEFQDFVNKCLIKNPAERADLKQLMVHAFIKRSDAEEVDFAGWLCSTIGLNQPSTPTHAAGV

PI3K isoforms = assay: PI3K isoform potency; assay type: biochemical
Procedure: as §2

AurB = target: T1, AurB (Homo sapiens, UniProt Q96GD4); assay: Off-target kinase selectivity panel (Invitrogen); assay type: biochemical; conditions: read-out: IC50 against AurB
T1 construct: purchased Invitrogen
T1 sequence (Q96GD4 whole entry): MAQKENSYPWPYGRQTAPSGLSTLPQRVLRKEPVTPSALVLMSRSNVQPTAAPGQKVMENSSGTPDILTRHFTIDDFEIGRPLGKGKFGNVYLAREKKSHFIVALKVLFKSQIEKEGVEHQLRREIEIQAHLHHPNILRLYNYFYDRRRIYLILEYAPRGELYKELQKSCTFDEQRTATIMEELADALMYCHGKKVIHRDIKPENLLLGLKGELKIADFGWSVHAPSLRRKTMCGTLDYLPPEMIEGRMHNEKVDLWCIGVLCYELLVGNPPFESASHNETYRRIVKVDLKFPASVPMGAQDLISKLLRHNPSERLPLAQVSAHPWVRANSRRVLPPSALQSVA
Procedure: as §2

EGFR = target: T2, EGFR (Homo sapiens, UniProt P00533); assay: Off-target kinase selectivity panel (Invitrogen); assay type: biochemical; conditions: read-out: IC50 against EGFR
T2 construct: purchased Invitrogen
T2 sequence (P00533 25-1210): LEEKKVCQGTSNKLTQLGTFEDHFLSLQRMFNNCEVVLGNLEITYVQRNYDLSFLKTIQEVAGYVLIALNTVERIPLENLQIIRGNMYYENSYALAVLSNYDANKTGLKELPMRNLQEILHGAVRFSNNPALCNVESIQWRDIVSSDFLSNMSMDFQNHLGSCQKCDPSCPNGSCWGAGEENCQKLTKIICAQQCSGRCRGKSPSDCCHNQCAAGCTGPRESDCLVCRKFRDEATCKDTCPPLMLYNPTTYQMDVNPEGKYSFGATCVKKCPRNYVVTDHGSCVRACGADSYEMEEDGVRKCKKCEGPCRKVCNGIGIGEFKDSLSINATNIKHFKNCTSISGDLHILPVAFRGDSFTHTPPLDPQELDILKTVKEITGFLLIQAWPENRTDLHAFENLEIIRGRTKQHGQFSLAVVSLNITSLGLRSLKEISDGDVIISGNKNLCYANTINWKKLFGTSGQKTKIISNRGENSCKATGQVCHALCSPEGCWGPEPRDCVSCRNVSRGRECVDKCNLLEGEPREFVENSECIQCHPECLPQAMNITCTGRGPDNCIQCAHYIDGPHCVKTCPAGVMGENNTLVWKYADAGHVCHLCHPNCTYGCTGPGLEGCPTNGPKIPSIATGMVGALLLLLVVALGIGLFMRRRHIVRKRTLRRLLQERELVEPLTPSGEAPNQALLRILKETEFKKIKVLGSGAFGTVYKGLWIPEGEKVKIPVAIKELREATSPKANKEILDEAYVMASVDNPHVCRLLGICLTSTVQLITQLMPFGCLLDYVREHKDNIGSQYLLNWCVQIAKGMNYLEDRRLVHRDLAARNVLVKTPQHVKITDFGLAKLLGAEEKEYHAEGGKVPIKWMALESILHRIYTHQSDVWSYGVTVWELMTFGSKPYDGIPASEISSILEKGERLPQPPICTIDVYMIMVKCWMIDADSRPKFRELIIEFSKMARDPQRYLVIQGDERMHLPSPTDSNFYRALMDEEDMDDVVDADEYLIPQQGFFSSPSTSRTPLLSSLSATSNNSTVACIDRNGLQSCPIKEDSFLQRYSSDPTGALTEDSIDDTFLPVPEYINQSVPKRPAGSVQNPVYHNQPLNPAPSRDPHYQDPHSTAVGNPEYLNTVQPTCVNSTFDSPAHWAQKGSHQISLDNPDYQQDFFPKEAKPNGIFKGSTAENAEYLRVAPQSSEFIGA
Procedure: as §2

ERK = assay: Off-target kinase selectivity panel (Invitrogen); assay type: biochemical; conditions: read-out: IC50 against ERK
Procedure: as §2

PKCα = target: T3, PKCα (Homo sapiens, UniProt P17252); assay: Off-target kinase selectivity panel (Invitrogen); assay type: biochemical; conditions: read-out: IC50 against PKCα
T3 construct: purchased Invitrogen
Procedure: as §2

pERK1/2 [Thr202/Tyr204] = assay: Cellular pERK expression by immunoblotting in Panc-1 cells; assay type: cell-based; conditions: Panc-1 cells treated for 1 hour, immunoblot
Procedure: as §1
(§3) Cells were cultured in Dulbecco's Modified Eagle's Medium (DMEM) and 10% FBS, and grown in a 37° C. incubator with 5% CO2. Cells were plated at 3×10^5 cells/well in 6 well plates, and the following day were treated for 1 hr at 37° C. Cells were lysed in 50 mM Tris, 1% NP-40, 150 mM NaCl, 10% glycerol, 1 mM EDTA with 1× protease inhibitor (complete; Roche Applied Science) and phosphatase inhibitors (PhosSTOP, Roche Applied Science). Protein concentration was determined with a Dc Protein Assay Kit (BioRad). Proteins were resolved by SDS-PAGE and transferred to nitrocellulose membranes. […]

pAKT [Ser473] = assay: Cellular pAKT expression by immunoblotting in Panc-1 cells; assay type: cell-based; conditions: Panc-1 cells treated for 1 hour, immunoblot
Procedure: as §1, §3

Compound: FC(F)c1nc2ccccc2n1-c1nc(N2CCNCC2)nc(N2CCOCC2)n1 [MV3-42B]
IC50 (PI3K; in vitro, purified enzyme): 0.1 µM

PI3K inhibition IC50 (PI3K; in vitro, purified enzyme, bound printed without a number): >μM
Compound: O=C(CCCCC[N+](=O)[O-])N1CCN(c2nc(N3CCOCC3)nc(-n3c(C(F)F)nc4ccccc43)n2)CC1 [MV3-44B]

IC50 (PI3K; in vitro, purified enzyme): < 0.1 µM
improvement in PI3K binding affinity (PI3K; nitro group (MV3-44B) converted to amino group): 10 fold
Compound: NCCCCCC(=O)N1CCN(c2nc(N3CCOCC3)nc(-n3c(C(F)F)nc4ccccc43)n2)CC1 [MV3-46A]

Compound: Cc1c(Cc2cccc(N(C)S(=O)(=O)CCCNCCCCCC(=O)N3CCN(c4nc(N5CCOCC5)nc(-n5c(C(F)F)nc6ccccc65)n4)CC3)c2)c(=O)oc2cc(OC(=O)N(C)C)ccc12 [MV3-65A]
IC50 (PI3K; in vitro, purified enzyme): 0.37 µM
IC50 (MEK1): 0.501 µM
potency against all of the PI3K isoforms (PI3K isoforms): comparably potent against all of the PI3K isoforms
IC50 (AurB): > 10 µM
IC50 (EGFR): > 10 µM
IC50 (ERK): > 10 µM
IC50 (PKCα): > 10 µM
cellular inhibition of pERK expression (pERK1/2 [Thr202/Tyr204]): cellular inhibition of both pERK and pAKT expression was observed
cellular inhibition of pAKT expression (pAKT [Ser473]): cellular inhibition of both pERK and pAKT expression was observed
